Measurements: US20120321565A1, “PHARMACEUTICAL COMPOSITIONS COMPRISING 17ALPHA-FURANYLESTERS OF 17BETA-CARBOTHIATE ANDROSTANES WITH A MUSCARINIC RECEPTOR ANTAGONIST” (GlaxoSmithKline Intellectual Property Management Limited, priority 2002, published 2012)

Assays:
[1] = Pharmacokinetics after intravenous administration in the anaesthetised pig; assay type: in vivo; details: for clearance, compound (I) vs fluticasone propionate (in words): intravenous 0.1 mg/kg; for pharmacokinetic parameters, compound (I) vs fluticasone propionate (in words): intravenous mixture of the two compounds at 0.1 mg/kg
Excerpt: The clearance of these two glucocorticoids is similar is this experimental pig model.

NFκB = assay: Transrepression (NFκB): firefly luciferase NFκB reporter in TNFα-stimulated A549 cells; assay type: cell-based; details: Homo sapiens, TNFα 0.5 ng/ml, read-out: Transrepression (NFκB) ED50
Excerpt: The glucocorticoid receptor (GR) can function in at least two distinct mechanisms, by upregulating gene expression through the direct binding of GR to specific sequences in gene promotors, and by downregulating gene expression that is being driven by other transcription factors (such as NFκB or AP-1) through their direct interaction with GR.
The first cell line contains the firefly luciferase reporter gene under the control of a synthetic promoter that specifically responds to activation of the transcription factor NFκB when stimulated with TNFα. The second cell line contains the renilla luciferase reporter gene under the control of a synthetic promotor that comprises 3 copies of the consensus glucocorticoid response element, and which responds to direct stimulation by glucocorticoids. Simultaneous measurement of transactivation and transrepression was conducted by mixing the two cell lines in a 1:1 ratio in 96 well plate (40,000 cells per well) and growing overnight at 37° C. Test compounds were dissolved in DMSO, and added to the cells at a final DMSO concentration of 0.7%. After incubation for 1 h 0.5 ng/ml TNFα (R&D Systems) was added and after a further 15 hours at 37° C., the levels of firefly and renilla luciferase were measured using the Packard Firelite kit following the manufacturers' directions. Dose response curves were constructed from which EC50 values were determined.

glucocorticoid receptor = target: T1, glucocorticoid receptor (Homo sapiens, UniProt P04150); assay: In vitro functional glucocorticoid assays (metabolite vs parent); assay type: cell-based
T1 sequence (P04150 1-777): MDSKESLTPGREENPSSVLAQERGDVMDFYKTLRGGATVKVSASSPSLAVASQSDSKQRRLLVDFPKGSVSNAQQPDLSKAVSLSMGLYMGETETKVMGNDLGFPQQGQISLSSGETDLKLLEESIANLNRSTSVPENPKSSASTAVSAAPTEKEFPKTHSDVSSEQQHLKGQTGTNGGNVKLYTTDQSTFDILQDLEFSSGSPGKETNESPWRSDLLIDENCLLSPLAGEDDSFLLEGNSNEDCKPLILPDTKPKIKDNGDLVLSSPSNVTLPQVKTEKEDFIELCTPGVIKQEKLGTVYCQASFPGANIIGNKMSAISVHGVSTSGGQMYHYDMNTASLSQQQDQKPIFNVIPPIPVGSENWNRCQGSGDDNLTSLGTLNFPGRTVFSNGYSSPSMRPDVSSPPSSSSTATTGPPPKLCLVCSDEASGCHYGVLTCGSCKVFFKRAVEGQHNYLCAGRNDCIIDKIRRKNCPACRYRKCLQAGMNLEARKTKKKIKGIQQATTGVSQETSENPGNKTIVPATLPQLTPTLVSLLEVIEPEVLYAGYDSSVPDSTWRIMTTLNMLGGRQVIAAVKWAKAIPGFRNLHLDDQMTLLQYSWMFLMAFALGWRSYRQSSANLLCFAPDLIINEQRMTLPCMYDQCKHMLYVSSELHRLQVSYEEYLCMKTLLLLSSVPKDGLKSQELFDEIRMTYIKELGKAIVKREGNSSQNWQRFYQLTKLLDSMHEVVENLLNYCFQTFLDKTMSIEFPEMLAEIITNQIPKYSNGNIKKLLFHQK
Excerpt: Compound (I) undergoes highly efficient hepatic metabolism to yield the 17-β carboxylic acid (X) as the sole major metabolite in rat and human in vitro systems.

SMILES | clearance, compound (I) vs fluticasone propionate (in words) [1] | pharmacokinetic parameters, compound (I) vs fluticasone propionate (in words) [1] | EC50 (NFκB) | fold less active than the parent compound (glucocorticoid receptor)
C[C@@H]1CC2C3C[C@H](F)C4=CC(=O)C=C[C@]4(C)[C@@]3(F)[C@@H](O)C[C@]2(C)[C@@]1(OC(=O)c1ccco1)C(=O)SCF (stereo partly drawn) [Compound of Formula (I), 6α, 9α-Difluoro-17α-[(2-furanylcarbonyl)oxy]-11β-hydroxy-16α-methyl-3-oxo-androsta-1,4-diene-17β-carbothioic acid S-fluoromethyl ester] | similar | the same | – | –
C[C@@H]1CC2C3C[C@H](F)C4=CC(=O)C=C[C@]4(C)[C@@]3(F)[C@@H](O)C[C@]2(C)[C@@]1(OC(=O)c1ccco1)C(=O)O (stereo partly drawn) [Metabolite (X)] | – | – | > 1 µM | > 1000 fold
CCC(=O)O[C@]1(C(=O)SCF)[C@H](C)C[C@H]2[C@@H]3C[C@H](F)C4=CC(=O)C=C[C@]4(C)[C@@]3(F)[C@@H](O)C[C@@]21C [Fluticasone propionate, 6α, 9α-Difluoro-17α-(1-oxopropoxy)-11β-hydroxy-16α-methyl-3-oxo-androsta-1,4-diene-17β-carbothioic acid S-fluoromethyl ester, reference compound] | similar | the same | – | –
